Measured values as given in patent US6509163B1, “Methods of screening modulators of mammalian P2X7 purinergic receptors” (Glaxo Group Limited, priority 1997, dated 2003).

Biological target: T1, r-hP2X7 (rat 1-346, human 347-595) (Rattus norvegicus, UniProt Q64663, A359S/A378V/A493C/A522V/A540S/C350F/D413N/D475V/E375Q/E438D/E521H/E537D/E539D/G538V/H448D/I354L/I464K/I516L/I541T/K419R/K544R/K576R/L353F/L437T/L525F/M459I/N356D/N481S/N490S/P390S/P407S/Q433A/Q463R/Q505A/Q585E/R366H/R491H/R501K/S370W/S443P/S445A/S449T/S514R/S552C/T348A/T361N/T434M/T584S/V367I/V467T/V559G/W410R/Y593S)
T1 construct: r-hP2X7 (rat 1-346, human 347-595); expressed in transfected cells; host or cells: HEK293 (transient)
T1 sequence (Q64663 1-595 T348A/C350F/L353F/I354L/N356D/A359S/T361N/R366H/V367I/S370W/E375Q/A378V/P390S/P407S/W410R/D413N/K419R/Q433A/T434M/L437T/E438D/S443P/S445A/H448D/S449T/M459I/Q463R/I464K/V467T/D475V/N481S/N490S/R491H/A493C/R501K/Q505A/S514R/I516L/E521H/A522V/L525F/E537D/G538V/E539D/A540S/I541T/K544R/S552C/V559G/K576R/T584S/Q585E/Y593S): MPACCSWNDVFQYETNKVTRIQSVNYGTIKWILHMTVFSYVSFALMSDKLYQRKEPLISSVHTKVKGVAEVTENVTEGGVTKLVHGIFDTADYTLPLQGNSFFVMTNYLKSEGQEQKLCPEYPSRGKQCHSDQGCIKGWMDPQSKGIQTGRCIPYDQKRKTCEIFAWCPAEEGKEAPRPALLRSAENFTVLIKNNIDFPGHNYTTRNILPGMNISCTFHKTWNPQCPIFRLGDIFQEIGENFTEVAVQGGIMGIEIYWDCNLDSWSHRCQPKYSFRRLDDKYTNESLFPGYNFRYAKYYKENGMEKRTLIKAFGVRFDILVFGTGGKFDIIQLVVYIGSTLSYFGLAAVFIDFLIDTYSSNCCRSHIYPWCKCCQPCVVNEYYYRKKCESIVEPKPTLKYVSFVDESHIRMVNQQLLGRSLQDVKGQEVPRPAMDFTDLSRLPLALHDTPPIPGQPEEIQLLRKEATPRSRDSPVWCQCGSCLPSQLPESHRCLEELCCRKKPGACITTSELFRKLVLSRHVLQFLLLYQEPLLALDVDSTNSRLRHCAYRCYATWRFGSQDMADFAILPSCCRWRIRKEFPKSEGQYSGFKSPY
Test: Whole-cell recordings in HEK293 cells expressing chimeric r-hP2X7 receptors
Format: cell-based
Conditions: low divalent concentrations, after removal of BzATP, n=10
Source text: Chimeras. A silent restriction site (NheI) was introduced at the equivalent positions in the rat and human cDNAs using the Pfu mutagenesis kit (Stratagene) (T to G at 1069 in rP2X7; G to A at 1072 in hP2X7) . A NheI-XhoI fragment corresponding to 3′ extremity of each cDNA was then excised and subcloned in the opposite plasmid (i.e. human 3′ end into rat background). The resulting chimeras were h-rP2X7 (human 1-346, rat 347-595) and r-hP2X7 (rat 1-346, human 347-595) (FIG. 5). All constructions were sequenced on their entire coding region.
Cell culture. HEK293 cells were transiently transfected with cDNA (1 μg/ml) and lipofectin dissolved in Optimem (GIBCO) placed into petri dishes containing four coverslips onto which cells were plated at a density of about 8×10^4/coverslip. Cells were washed 5 h later and normal DMEM applied. Electrophysiological studies or dye uptake measurements were carried out 18-49 h later. For each set of transfections, parallel experiments were performed on HEK cells transfected with cDNA encoding both rP2X7 and hP2X7 receptors.
Electrophysiological experiments. Whole-cell recordings were made using the EPC9 patch-clamp amplifier and Pulse acquisition programs (HEKA, Lambrecht, Germany). Patch pipettes (5-7 MΩ) contained (mM) CsCl or NaCl 154, EGTA 10, HEPES 5. […]

Nc1ncnc2c1ncn2[C@@H]1O[C@H](COP(=O)(O)OP(=O)(O)OP(=O)(O)O)[C@@H](OC(=O)c2ccc(C(=O)c3ccccc3)cc2)[C@H]1O [BzATP, 3′-O-(4-benzoyl)benzoyl ATP]
current measured at 30 s, of peak: 31±3
